Patent USRE50977E1, “Methods for production of platelets from pluripotent stem cells and compositions thereof” (Astellas Institute for Regenerative Medicine, priority 2012, dated 2026)

Tests used:
[1] = system: human and murine MLL-fusion leukemic cell lines; details: induction of early cell cycle arrest and apoptosis; cited from earlier work
GATA1 gene expression = test: Q-PCR of GATA1 in MKPs treated with iBET151; format: cell-based, human; details: 0.1 and 0.25 μM
Method: (§1) As also described above in Example 10, we therefore determined whether suppression of c-myc expression would enhance MK lineage differentiation/expansion and simultaneously prohibit myeloid and other lineage differentiation/expansion. MKP Day 6+3 cultures were treated with non-cytotoxic doses of a c-myc inhibitor, iBET151 (0.1 and 0.25 μM) for 24 hours and then harvested for analysis. […] CD14+ myeloid cells were decreased from about 12% in control cultures to less than 5% and 3% in cultures treated with iBET151 at 0.1 and 0.25 μM, respectively.

c-myc gene expression = test: Q-PCR of MYC in MKPs treated with iBET151; format: cell-based, human; details: 0.1 and 0.25 μM
Method: as §1

[2] = system: cells undergoing in vitro megakaryopoiesis; test: iBET151 treatment of MKP Day 6+3 cultures; format: cell-based, human; details: for increase of MKP outputs vs untreated controls: 24 hours; for CD14+ myeloid cells: D6+3 to D6+4, control about 12%; for number/formation of CD14+ myeloid cells: 0.1 and 0.25 μM
Method: To promote early MK progenitor production, cells were cultured in MK-Specific Progenitor Expansion medium (EXP-M) containing STEMdiff APEL Medium+TPO (25 ng/ml), SCF (25 ng/ml), Flt-3 ligand (25 ng/ml), IL-3 (10 ng/ml), IL-6 (10 ng/ml) and heparin (5 U/ml) for up to 7 days. Non-adherent MK Progenitors (MKPs) were constantly released into the medium and harvested for 4-5 consecutive days in EXP-M. Daily harvests were cryo-preserved in animal protein-free defined cryopreservation CryoStor™ medium. Samples of MKPs were also subjected to flow cytometry for analysis of CD41a, CD42b, CD31, CD34, CD43, CD13, CD235a, and CD14 cell surface expression.
as §1

[3] = system: iPS derived megakaryocytes; test: Platelet formation in static culture with MMP inhibitors; format: cell-based, human; details: for protection of platelets (CD42b shedding) compared with GM6001: comparative study of specific MMP inhibitors
Method: The peak of platelet production is determined by measuring platelet content in the culture, for example on a daily basis for several days. It is typically 4-7 days after the beginning of the MLP differentiation culture period, although it may be longer or it may be shifted. To induce MK maturation and platelet formation, freshly collected or thawed MKPs were cultured in MK maturation medium (MK-M) containing […]+TPO, SCF, IL-6 and […] Megakaryocyte Expansion Supplement) and heparin (5 U/ml) in ultralow attachment plates (Corning). 5 μM of Y-27632 was added for the first 3 days of culture, and cells were incubated in 7% CO2 at 39° C. Cell morphology and density were monitored daily and fresh medium was added to maintain 10^6 cells/ml for the first 4 days. The maturation of MKs from MKPs was monitored using flow cytometric analysis of CD41a, CD42b, and CD235a. Once pro-platelet morphology was observed, medium samples were taken daily to determine platelet yield using CD41a/CD42b double staining by flow cytometric analysis. Platelets were collected for 3-5 consecutive days during the peak of production. To extract platelets, large MKs were removed first using low speed centrifugation (50×g for 10 min), and proplatelets and small MKs were removed by further 10 min centrifugation at 300×g. The iPS-platelets in the supernatants were collected using higher g force (1000-2500×g) in the presence of PGE1 (1 μM). The collected iPS-platelet pellets were then subjected to further purification using a BSA gradient centrifugation as described previously (Robert et al., 2012). Briefly, iPS-platelet pellets were re-suspended with 1× CGS buffer. Platelets were applied in the buffer on top of a BSA gradient with BSA concentration of (weight/volume) of 12, 10, 7, 5 and 2%. The sample was centrifuged at 82×g for 15 min with no break, then the platelet-rich fraction was collected. iPS-platelets purified from BSA gradient were stored or transported at room temperature in MK-M for further analyses.

MKs derived from HA-iPS = test: Platelet generation under constant shear force in microfluidic device, HA-iPS derived MKs; format: cell-based, human
Method: Matured MKs, derived from HA-iPS and MA09 hES lines, were used. Equal numbers of MKs suspended in MK-specific medium were loaded into a microfluidic device in the presence or absence of 20 μM MMP inhibitor GM6001. Constant shear force was applied to the MKs throughout the culture period. MK-medium downstream of MKs was collected at 30 minute intervals for a period of 6 hours. Platelet number and purity (i.e., percentage of total cells that are CD41a^+CD42b^+) in the collected media were measured using flow cytometer.

[4] = constant shear force, 20 μM added at beginning of culture, vs DMSO

COc1cc2c(cc1-c1c(C)noc1C)ncc1[nH]c(=O)n([C@H](C)c3ccccn3)c12 [iBET151]
efficacy against leukemic cell lines [1]: profound efficacy | GATA1 mRNA expression (GATA1 gene expression): up-regulation | GATA1 mRNA expression (GATA1 gene expression; listed as i-BET-151): up-regulated | c-myc (MYC) mRNA expression (c-myc gene expression): dose-dependent downregulation | c-myc (MYC) mRNA expression (c-myc gene expression; listed as i-BET-151): dose-dependent inhibition | increase of MKP outputs vs untreated controls ([2]; 0.1 μM): ≈ 2 fold | CD14+ myeloid cells ([2]; 0.1 μM): less than 5% | increase of MKP outputs vs untreated controls ([2]; 0.25 μM): ~4 fold | CD14+ myeloid cells ([2]; 0.25 μM): < 3% | number/formation of CD14+ myeloid cells [2]: inhibited | number/formation of CD14+ myeloid cells ([2]; listed as i-BET-151): dose-dependent decrease | apoptosis ([2]; high dose): massive apoptosis | numbers of MK progenitors ([2]; lower doses, micromolar or submicromolar range): increased numbers of MK progenitors

COc1ccc(S(=O)(=O)N2Cc3ccccc3C[C@@H]2C(=O)NO)cc1 [MMP8-I, (3R)-(+)-[2-(4-Methoxybenzenesulfonyl)-1,2,3,4-tetrahydroisoquinoline-3-hydroxamate]]
total number of CD41a+CD42b+ platelets, increase vs control ([3]; MK culture): ~ 46% | protection of platelets (CD42b shedding) compared with GM6001 [3]: superior shedding protection than GM | protection of platelets (CD42b shedding) compared with GM6001 ([3]; listed as MMP8 inhibitor): more potency than GM6001 | CD41a+CD42b+ platelets produced as compared to GM6001 ([3]; static culture): Significantly more | purity gain over GM6001-treated cultures ([3]; static culture): approximately 10% | purity of iPS-derived platelets ([3]; static culture, added at the peak of platelet production, control 43.7%): 65.5%

CNC(=O)[C@H](Cc1c[nH]c2ccccc12)NC(=O)[C@@H](CC(=O)NO)CC(C)C [GM6001]
platelet purity (percentage CD41a+CD42b+) (MKs derived from HA-iPS; [4]): significantly improved | platelet yield (MKs derived from HA-iPS; [4]): significantly improved | platelet numbers as a function of time (MKs derived from HA-iPS; shear force culture, FIG. 23): significantly more platelets were generated | CD41b+/CD42b+ platelets ([3]; added in MK culture, control 45%): 59%
